According to publication PMC11354698, “Functional Characterization of an Odorant Receptor Expressed in Newly Hatched Larvae of Fall Armyworm Spodoptera frugiperda” (Insects, 2024):

Biological target: T1, SfruOR40/Orco (SfruOR40 co-expressed with SfruOrco) (Spodoptera frugiperda, UniProt A0A9R0D2T2)
T1 construct: gene LOC118267896; full-length ORF of SfruOR40 (395 residues); with Odorant receptor coreceptor
T1 sequence (A0A9R0D2T2 1-395): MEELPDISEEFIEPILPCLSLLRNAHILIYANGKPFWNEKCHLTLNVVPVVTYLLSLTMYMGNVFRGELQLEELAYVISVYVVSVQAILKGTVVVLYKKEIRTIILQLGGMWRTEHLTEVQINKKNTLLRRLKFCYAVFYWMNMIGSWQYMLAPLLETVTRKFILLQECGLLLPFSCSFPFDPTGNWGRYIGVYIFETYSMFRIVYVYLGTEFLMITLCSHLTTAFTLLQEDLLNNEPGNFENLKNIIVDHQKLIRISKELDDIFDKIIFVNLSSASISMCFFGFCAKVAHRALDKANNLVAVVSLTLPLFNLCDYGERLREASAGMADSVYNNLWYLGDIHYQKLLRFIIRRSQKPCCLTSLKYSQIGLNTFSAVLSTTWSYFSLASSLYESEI
T1 sequence (A0A9F1UC78 1-473 partner): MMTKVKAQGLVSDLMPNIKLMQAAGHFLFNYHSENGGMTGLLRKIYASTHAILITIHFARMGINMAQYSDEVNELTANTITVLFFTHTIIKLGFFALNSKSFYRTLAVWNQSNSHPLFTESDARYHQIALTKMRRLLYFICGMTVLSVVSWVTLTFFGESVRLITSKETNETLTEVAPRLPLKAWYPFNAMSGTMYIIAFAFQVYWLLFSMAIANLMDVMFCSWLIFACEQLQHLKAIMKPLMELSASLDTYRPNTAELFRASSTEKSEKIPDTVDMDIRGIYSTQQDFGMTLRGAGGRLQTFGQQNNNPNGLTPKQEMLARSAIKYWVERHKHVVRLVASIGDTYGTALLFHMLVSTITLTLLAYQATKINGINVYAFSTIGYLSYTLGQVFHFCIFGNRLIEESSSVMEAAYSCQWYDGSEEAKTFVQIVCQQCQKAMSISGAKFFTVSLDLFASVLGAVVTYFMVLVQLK
Assay: two-electrode voltage clamp, Xenopus oocytes
Type: cell-based
Details: agonist, 10^-4 M odorant, -80 mV, Ringer's buffer pH 7.6, 0.1% DMSO, n = 7

Row | mean current amplitude at 10^-4 M [nA] | SMILES
1 | 90 | C=C1CC[C@H]2O[C@]2(C)CC[C@@H]2[C@@H]1CC2(C)C [(−)-trans-Caryophyllene oxide]
2 | 111 | C=C1CC/C=C(\C)CC[C@@H]2[C@@H]1CC2(C)C [(−)-trans-Caryophyllene]
3 | 206 | C/C1=C\CC/C(C)=C/CC(C)(C)/C=C/C1 [α-Humulene]
